How the values were obtained:
Selective Cu = assay type: binding; conditions: for Average half-time of Cu(II) withdrawal, Cu(II), D/F / Average half-time of Cu(II) withdrawal, Cu(II), DMEM 10%: Cu(II) alone, Cu(II)=shuttle=5 µM, 25°C, NBD emission at 545 nm, n=3; for Average half-time of Cu(II) withdrawal, Cu(II), D/F: D/F 100%; for Cu(II) withdrawn from D/F media over the measurement duration: D/F media spiked with 5 µM Cu(II), shuttle 5 µM, NBD emission followed for 5h
Cu(II)Aβ1-16 = Cu(II)Aβ1-16 (Homo sapiens, UniProt P05067); test: Retrieval of Cu; assay type: binding; conditions: 25°C; for time to complete retrieval of Cu(II) from Aβ1-16: HEPES buffer / 10% DMEM, shuttle 5 µM, Aβ1-16 10 µM, Cu(II) 5 µM; for Kinetics of Cu(II) transfer from Aß1-16 to shuttle, DMEM 10%: shuttle=Cu(II)=5 µM, Aß1-16=10 µM, 10% DMEM, NBD emission 545 nm, n=3
[1] = Reduction/release of shuttle-bound Cu; assay type: physicochemical; conditions: 5 mM GSH, HEPES 100 mM pH 7.4
PC12 cells [2] = test: Rescue of PC12 cells from Cu; assay type: cell-based; conditions: 5 µM shuttle, 10 µM Cu(II)Aβ1-16 0.5:1, AscH-, 10% DMEM, 24h, MTT, n=3
microglial cells in OHSC = test: Microglia proliferation and activation in OHSC; assay type: cell-based, CD1 mice; conditions: 10 µM Cu(II)=shuttle, 20 µM Aβ1-40/42, 48h, Iba1 staining, n=3
PC12 cells [3] = test: Toxicity of shuttles on PC12 cells; assay type: cell-based; conditions: 5 x 10^4 PC12 cells, 24h, 100% DMEM media

Compound | Average half-time of Cu(II) withdrawal, Cu(II), D/F (Selective Cu) | Average half-time of Cu(II) withdrawal, Cu(II), DMEM 10% (Selective Cu) | Cu(II) withdrawn from D/F media over the measurement duration (Selective Cu) | time to complete retrieval of Cu(II) from Aβ1-16 (Cu(II)Aβ1-16) | Kinetics of Cu(II) transfer from Aß1-16 to shuttle, DMEM 10% (Cu(II)Aβ1-16) | half-time of reduction of shuttle-bound Cu(II) by GSH (in words) [1] | rescue of Cu(II)Aβ1-16-induced toxicity in PC12 cells (PC12 cells [2]) | effect on Cu(II)(Aβ1-40/42)-induced microglial cell proliferation in OHSC (microglial cells in OHSC) | toxicity to PC12 cells (in words) (PC12 cells [3])
H2N-Dap-His-His-αR5W4^NBD [DapHH-αR5W4^NBD] | 4.3 ± 0.6 min | < 1 min | > 80% | less than two minutes | 47.9 ± 9.2 s | only a few minutes | reversed | reduced microglial cell proliferation | 
CNC(=S)NN=CC=NNC(=S)NC [GTSM, glyoxal-bis(4-methylthiosemicarbazonato)] |  |  |  |  |  |  |  |  | toxic at nanomolar concentration
CN=C([S-])N/N=C/C=N/NC([S-])=NC.[Cu+2] [Cu(II)GTSM] |  |  |  |  |  |  |  |  | toxic to PC12 cells
H2N-His-Dap-His-αR5W4^NBD [HDapH-αR5W4^NBD] | < 1 min | < 1 min | completely withdrew | less than two minutes | 14.5 ± 3.8 s | only a few minutes | reversed | reduced microglial cell proliferation | 

From article doi:10.1101/2024.09.04.611242v3 (bioRxiv, 2024)
